Source: PubChem BioAssay (NCI)
“And” between values parts separate entries of the source, which are not always exact repeats. Identical values can stand only once.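 Each compound was tested at five concentrations against cells in 96-well plates for 48 hours. The concentration for 50% growth inhibition is given as GI50. TGI marks complete inhibition of growth.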

Tests used:
Test in all cases: growth of human tumour cells (NCI), 48 h
[1] = system: COLO 205 colon
[2] = system: HOP-92 NSCLC
[3] = system: M14 melanoma
[4] = system: NCI/ADR-RES ovarian
[5] = system: OVCAR-8 ovarian
[6] = system: SNB-75 CNS
[7] = system: T-47D breast
[8] = system: U251 CNS
[9] = system: DLD-1 colon
[10] = system: M19-MEL melanoma

Row | SMILES | GI50 [1] [µM] | TGI [1] [µM] | GI50 [2] [µM] | TGI [2] [µM] | GI50 [3] [µM] | TGI [3] | GI50 [4] [µM] | TGI [4] [µM] | GI50 [5] [µM] | TGI [5] | GI50 [6] [µM] | TGI [6] [µM] | GI50 [7] [µM] | TGI [7] [µM] | GI50 [8] [µM] | TGI [8] | TGI [9] | TGI [10] | GI50 [9] [µM] | GI50 [10] [µM]
1 | COc1ccc(N=C2NN=C(c3c[nH]c4ccccc34)CS2)cc1OC | 6.55 | > 76.5 | 5.81 | > 58.1 | 4.49 | > 100 µM | 3.15 | > 28 | 22.7 | > 89.9 µM | 3.34 | 20.6 | 5.04 | > 73.3 | 6.38 | > 100 µM | – | – | – | –
2 | O=C1c2ccccc2C(=O)c2c1ccc1c3ccccc3n(Cc3ccccc3)c21 | – | > 100 | – | 94.2 | – | > 100 µM | – | – | – | > 100 µM | – | > 100 | – | – | – | – | > 100 µM | > 100 µM | – | –
3 | C=C(CC1(CC(=C)c2ccc(C(=O)O)cc2)C(=O)N(C)C(=O)N(C)C1=O)c1ccc(C(=O)O)cc1 | 29.1 | > 100 | 78.4 | > 100 | > 100 | > 100 µM | 63.8 | > 100 | 62.8 | > 100 µM | 25.2 | > 100 | 25.2 | > 100 | 54.2 | > 100 µM | – | – | – | –
4 | CCC1(N2C(=O)c3c(F)c(F)c(F)c(F)c3C2=O)C(=O)NC(=O)N(c2ccccc2)C1=O (stereo not drawn) | 2.57 | 6.78 | 2.01 | 4.17 | 4.46 | 19.4 µM | 7.69 | 27.1 | 3.47 | 11.4 µM | 1.9 | 5.09 | 2.2 | 4.72 | 1.53 | 3.07 µM | – | – | – | –
5 | CC(=O)Nc1ccc(C(=O)N2N=C(C)/C(=C/c3cccc(O)c3)C2=O)cc1 | – | > 100 | – | – | – | > 100 µM | – | – | – | > 100 µM | – | > 100 | – | – | – | > 100 µM | > 100 µM | > 100 µM | – | –
6 | COC(=O)C(=O)C(C(=O)C(=O)Nc1ccccc1C(N)=O)c1nc2ccc(C(=O)c3ccccc3)cc2[nH]c1=O (stereo not drawn) | – | > 100 | – | – | – | > 100 µM | – | – | – | > 100 µM | – | – | – | – | – | > 100 µM | – | > 100 µM | – | –
7 | O=C(Cc1nc2ccc([N+](=O)[O-])cc2[nH]c1=O)C(=O)Nc1cc(Cl)c(Cl)cc1Cl | – | > 100 | – | > 100 | – | > 100 µM | – | > 100 | – | > 100 µM | – | > 100 | – | > 100 | – | > 100 µM | – | – | – | –
8 | CCNC(=O)Oc1ccc(/C(=C(\C)c2ccc(Cl)cc2)c2ccc(OCCN3CCCCC3)cc2)cc1 | 2.1 | 4.6 | 2.7 | 9.25 | 1.87 | 3.8 µM | 5.59 | 22.7 | 9.31 | 26 µM | 2.67 | 18.6 | 1.34 | 10.2 | 4.19 | 14.5 µM | – | – | – | –
9 | Clc1ccccc1C1=NN(c2ccccc2)C2c3cc(Br)ccc3OCC12 (stereo not drawn) | – | > 100 | – | > 100 | – | – | – | – | – | > 100 µM | – | > 100 | – | – | – | > 100 µM | > 100 µM | > 100 µM | – | –
10 | CN(C)c1ccc(Sc2ccc3nc(N)nc(N)c3c2)cc1 | 1.14 | 2.59 | 1.32 | 5.83 | 0.363 | 2.13 µM | 0.743 | 14.9 | 0.589 | 9.88 µM | 2.14 | 16.3 | 1.66 | 4.82 | 0.446 | 4.14 µM | – | – | – | –
11 | CCCCCCCCC(=O)NCCCNCCCNC(=O)CCCCCCCC | – | 9.57 | – | 14.1 | – | 4.15 µM | – | – | – | 32.9 µM | – | – | – | – | – | 8.92 µM | 7.7 µM | 8.38 µM | – | –
12 | COC(=O)Nc1nc2ccc(Sc3ccc(NC(=O)Nc4cc(C(F)(F)F)ccc4F)cc3)cc2[nH]1 | 3.67 | 9.29 | 2.53 | 10.3 | 2.01 | 8.26 µM | 2.74 | 11.5 | 4.23 | 11.6 µM | 3.32 | 10.9 | 4.43 | 11.2 | 3.27 | 7.28 µM | – | – | – | –
13 | CC(C)(C)c1ccc(S(=O)(=O)N[C@H]2CC[C@H]3[C@@H]4CCc5cc(O)ccc5[C@H]4CC[C@]23C)cc1 | 1.85 | 3.3 | 1.53 | 4.2 | 2.02 | 4.04 µM | 2.23 | 5.21 | 2.02 | 4.59 µM | 2.08 | 6.38 | 2.59 | 8.76 | 1.89 | 4.45 µM | – | – | – | –
14 | O=C1/C(=C/c2ccccc2)CN(C(=O)Oc2ccc([N+](=O)[O-])cc2)C/C1=C\c1ccccc1 | 4.95 | – | – | – | 1.71 | 6.74 µM and 3.51 µM | – | – | 1.86 | 3.74 µM and 4.18 µM | – | – | – | – | 1.56 | 4.2 µM and 3.31 µM | 4.83 µM and 3.45 µM | 3.56 µM and 2.75 µM | 1.2 | 1.26
15 | CCOC(=O)Cc1csc(NC(=O)C(OC(=O)c2ccc(N)cc2)c2ccccc2)n1 (stereo not drawn) | 46.2 | > 100 | 62 | > 100 | 22.6 | 62.5 µM | 43.5 | > 100 | 73.6 | > 100 µM | 45.9 | > 100 | 55.2 | > 100 | 45.5 | > 100 µM | – | – | – | –
16 | CCCCCCCCCCCCNC(=O)[C@H]1CSC(c2ccc(OC)c(F)c2)N1 (stereo partly drawn) | 1.94 | 3.84 | 1.69 | 3.24 | 0.191 | 0.374 µM | 1.61 | 3.52 | 1.18 | 4.13 µM | 0.468 | 1.01 | 1.75 | 3.66 | 1.89 | 3.66 µM | – | – | – | –
17 | COc1ccccc1NC(=O)C(=O)C1C(=O)Nc2ccccc2S1=O (stereo not drawn) | – | > 100 | – | – | – | > 100 µM | – | – | – | > 100 µM | – | > 100 | – | – | – | > 100 µM | > 100 µM | > 100 µM | – | –
